Measured values taken from the supplement of paper PMC4723716.
Counter-ions that a name gives are not always drawn.

System: Plasmodium falciparum NF54 gametocytes
Conditions: 384, incubation time: 72 h
Description: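 Known antimalarials and MMV control compounds in dose response against each stage (I–V) […] The fitted EC50 is reported as IC50 in µM; '>' marks the top dose reached without a curve.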

[1] = gametocyte stage: Stage I Dose Response IC50 (µM), assay protocol: TSSA
[2] = gametocyte stage: Stage II Dose Response IC50 (µM), assay protocol: TSSA
[3] = gametocyte stage: Stage III Dose Response IC50 (µM), assay protocol: TSSA
[4] = gametocyte stage: Stage IV Dose Response IC50 (µM), assay protocol: TSSA
[5] = gametocyte stage: Stage V Dose Response IC50 (µM), assay protocol: TSSA
[6] = gametocyte stage: Stage I Dose Response IC50 (µM), assay protocol: SaLSSA
[7] = gametocyte stage: Stage II Dose Response IC50 (µM), assay protocol: SaLSSA
[8] = gametocyte stage: Stage III Dose Response IC50 (µM), assay protocol: SaLSSA
[9] = gametocyte stage: Stage IV Dose Response IC50 (µM), assay protocol: SaLSSA
[10] = gametocyte stage: Stage V Dose Response IC50 (µM), assay protocol: SaLSSA

Row | SMILES | IC50 of gametocyte viability [1] [µM] | IC50 of gametocyte viability [2] [µM] | IC50 of gametocyte viability [3] [µM] | IC50 of gametocyte viability [4] [µM] | IC50 of gametocyte viability [5] [µM] | IC50 of gametocyte viability [6] [µM] | IC50 of gametocyte viability [7] [µM] | IC50 of gametocyte viability [8] [µM] | IC50 of gametocyte viability [9] [µM] | IC50 of gametocyte viability [10] [µM]
1 | C=C(NC(=O)C(=C)NC(=O)c1csc(C2=N[C@@H]3c4csc(n4)[C@H]4NC(=O)c5csc(n5)[C@H]([C@](C)(O)[C@@H](C)O)NC(=O)[C@H]5CSC(=N5)/C(=C/C)NC(=O)[C@H]([C@@H](C)O)NC(=O)c5csc(n5)[C@]3(CC2)NC(=O)[C@H](C)NC(=O)C(=C)NC(=O)[C@H](C)NC(=O)[C@H]([C@@H](C)CC)N[C@@H]2C=Cc3c([C@H](C)O)cc(nc3[C@H]2O)C(=O)O[C@@H]4C)n1)C(N)=O [Thiostrepton] | 4.04 | 4.81 | 3.75 | 3.41 | 3.42 |  |  |  |  | 
2 | C[C@@H]1CC[C@H]2[C@@H](C)C(=O)O[C@@H]3O[C@@]4(C)CC[C@@H]1[C@]32OO4 [Artemisinin] |  |  |  |  |  | 0.0243 | 0.0204 | 0.0118 | 0.0373 | > 12.5
3 | CC1(C)N=C(N)N=C(N)N1c1ccc(Cl)cc1 [Cycloguanil] |  |  |  |  |  | > 12.5 | > 12.5 | > 12.5 | > 12.5 | > 12.5
4 | Nc1ccc(S(=O)(=O)Nc2ncccn2)cc1 [Sulfadiazine] | > 12.5 | > 12.5 | > 12.5 | > 12.5 | > 12.5 |  |  |  |  | 
5 | C[C@@H]1C[C@@H]([C@H](O)CC2CC(=O)NC(=O)C2)C(=O)[C@@H](C)C1 [Cycloheximide] |  |  |  |  |  | 1.92 | 0.64 | 0.913 | 0.477 | 2.69
6 | CCN(CCO)CCCC(C)Nc1ccnc2cc(Cl)ccc12 (stereo unspecified) [Hydroxychloroquine] | 0.104 | 0.139 | > 6.25 | > 6.25 | > 6.25 | 0.107 | 0.131 | > 4.49 | > 6.25 | > 6.25
7 | CC(C)NC(=N)NC(=N)Nc1ccc(Cl)cc1 [proguanil hydrochloride/1.14] |  |  |  |  |  | > 12.5 | > 12.5 | > 12.5 | > 12.5 | > 12.5
8 | C[C@H]1c2cccc(O)c2C(O)=C2C(=O)[C@]3(O)C(O)=C(C(N)=O)C(=O)[C@@H](N(C)C)[C@@H]3[C@@H](O)[C@@H]21 [Doxycyclin] | > 12.5 | > 12.5 | > 12.5 | > 12.5 | > 12.5 |  |  |  |  | 
9 | CC[C@H]1OC(=O)[C@H](C)[C@H](O[C@H]2C[C@@](C)(OC)[C@@H](O)[C@H](C)O2)[C@H](C)[C@@H](O[C@@H]2O[C@H](C)C[C@H](N(C)C)[C@H]2O)[C@](C)(O)C[C@@H](C)CN(C)[C@H](C)[C@H](O)[C@]1(C)O [Azithromycin] |  |  |  |  |  | > 12.5 | > 12.5 | > 12.2 | > 12.5 | > 12.5
10 | CC1Cc2c([nH]c3cc(F)c(F)cc23)C2(N1)C(=O)Nc1ccc(Cl)cc12 (stereo unspecified) [KAF246] |  |  |  |  |  | 0.00139 | 0.00186 | 0.0021 | 0.00177 | 0.00235
11 | CC[C@H](C)[C@H](NC(=O)[C@H]([C@@H](C)CC)N(C)C(C)=O)C(=O)N[C@H](C(=O)N[C@@H](CC(C)C)C(=O)[C@@]1(C)CO1)[C@@H](C)O [Epoxomycin] |  |  |  |  |  |  |  |  |  | 0.0128
12 | COc1cc(NC(C)CCCN)c2ncccc2c1 (stereo unspecified) [Primaquine] | 3.35 | 6.41 | 7.96 | 9.44 | > 11.3 | 2.47 | 2.25 | 5.4 | 5.15 | 6.5
